Among the data in PubChem BioAssay (NCI) are TGI values, retold here.

The structures appear in SMILES notation.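 Five compound concentrations were applied to cells in 96-well plates for 48 hours; endpoints were derived by simple linear interpolation of the resulting dose-response curve. TGI: total growth inhibition.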

Some test systems named below: HCC-2998 colon; HCT-15 colon; HS 578T breast; K-562 leukemia; KM12 colon; M14 melanoma; NCI-H522 lung; NCI/ADR-RES ovarian; SR leukemia; U251 CNS.
Common to all, as to assay: inhibition of tumour cell growth, NCI panel, 48 h

As to `CCOC(=O)N1c2c(c3ccccc3n2C(=O)OCC)C(=O)C(OC)N1C(=O)OCC` (stereo not given), the TGI with HCC-2998 colon is above 100 µM; with HCT-15 colon it was 79 µM; in the experiment with HS 578T breast it was 73.3 µM; with K-562 leukemia, above 100 µM; in the experiment with KM12 colon, 38.9 µM; with M14 melanoma, above 100 µM. The TGI was 41.2 µM with NCI-H522 lung, 62.1 µM with NCI/ADR-RES ovarian, 45.1 µM with SR leukemia and 76.5 µM in the experiment with U251 CNS.

For the compound `CSC(=N/N=C(\C)c1ccc(S(=O)(=O)N(C)c2ccccc2)cc1)SC`, the TGI with HCC-2998 colon, in the experiment with HCT-15 colon, with HS 578T breast, with K-562 leukemia, in the experiment on KM12 colon and in the experiment with M14 melanoma was above 100 µM each time. Also, the TGI with NCI-H522 lung, in the experiment with NCI/ADR-RES ovarian, in the experiment with SR leukemia and in the experiment on U251 CNS was above 100 µM throughout.

In the case of `Cc1cc(=O)oc2c(CN(CCCl)CCCl)c(O)ccc12`, the TGI in the experiment on HCC-2998 colon, in the experiment with HCT-15 colon, in the experiment on HS 578T breast, in the experiment on K-562 leukemia, in the experiment with KM12 colon and in the experiment on M14 melanoma was above 100 µM in each case. The TGI with NCI-H522 lung was 36.4 µM; with NCI/ADR-RES ovarian, above 100 µM; in the experiment on SR leukemia it was above 100 µM; in the experiment on U251 CNS it was above 100 µM.

As to `COc1cc2c3c4[n+](cc2c(OC)c1OC)CCC4CCC3` (stereo not given), the TGI in the experiment on HCC-2998 colon was above 100 µM; in the experiment on HCT-15 colon it was above 100 µM; with HS 578T breast, above 100 µM; in the experiment on K-562 leukemia, above 100 µM; in the experiment with KM12 colon, 99.5 µM; in the experiment with M14 melanoma, above 100 µM. Moreover, the TGI in the experiment on NCI-H522 lung, in the experiment with NCI/ADR-RES ovarian, with SR leukemia and with U251 CNS was above 100 µM in each case.

`Cc1nc2cccc(F)c2c(=O)n1-c1nnc(C2CC2)s1`: the TGI in the experiment on HCC-2998 colon, in the experiment on HCT-15 colon, with HS 578T breast, in the experiment with K-562 leukemia, in the experiment on KM12 colon and with M14 melanoma was above 10 µM throughout. Also, the TGI in the experiment on NCI-H522 lung, in the experiment on NCI/ADR-RES ovarian, with SR leukemia and with U251 CNS was above 10 µM each time.

With `Cc1cnc2[nH]c(-c3sccc3C)cc(=O)c2c1`, the TGI in the experiment on HCC-2998 colon was 96.8 µM; with HCT-15 colon, above 100 µM; in the experiment with HS 578T breast it was 6.01 µM; in the experiment on K-562 leukemia, above 100 µM; with KM12 colon it was above 51.3 µM; with M14 melanoma it was above 33.4 µM. Further, the TGI in the experiment on NCI-H522 lung was 4.49 µM; in the experiment with NCI/ADR-RES ovarian it was above 100 µM; in the experiment on SR leukemia, above 100 µM; in the experiment on U251 CNS, above 100 µM.

For `N#Cc1nc(-c2ccccn2)c(-c2ccccn2)nc1C#N`, the TGI in the experiment on HCC-2998 colon is 17.6 µM; in the experiment on HCT-15 colon it was above 42 µM; in the experiment with HS 578T breast, 29.1 µM; with K-562 leukemia, 19.4 µM; in the experiment on KM12 colon, 11.6 µM; with M14 melanoma it was 8.46 µM. Besides, the TGI was 16.6 µM in the experiment with NCI-H522 lung, 8.5 µM in the experiment on NCI/ADR-RES ovarian, above 33.9 µM in the experiment with SR leukemia and above 37.3 µM with U251 CNS.

As to `S=C1NNC(=S)NN1`, the TGI is above 1 µM with HCC-2998 colon; above 1 µM with HCT-15 colon; above 1 µM with HS 578T breast; 0.478 µM with K-562 leukemia; above 1 µM with KM12 colon; above 1 µM in the experiment with M14 melanoma. The TGI is above 1 µM in the experiment with NCI-H522 lung, above 1 µM with NCI/ADR-RES ovarian, 0.671 µM with SR leukemia and above 1 µM in the experiment on U251 CNS.

On to `Cc1nc2ccccc2nc1N1CCCC1`, for which the TGI in the experiment on HCC-2998 colon, in the experiment with HCT-15 colon, in the experiment on HS 578T breast, in the experiment with K-562 leukemia, with KM12 colon and in the experiment with M14 melanoma was above 100 µM each time. Besides, the TGI with NCI-H522 lung, in the experiment with NCI/ADR-RES ovarian, in the experiment with SR leukemia and in the experiment on U251 CNS was above 100 µM in each case.

Take `CC(=O)N1C(=O)/C(=C\C(=O)c2ccc(Cl)cc2)c2ccccc21`: the TGI in the experiment with HCC-2998 colon was 31.5 µM; in the experiment with HCT-15 colon, 23.4 µM; in the experiment with HS 578T breast it was above 57.3 µM; in the experiment with K-562 leukemia, above 100 µM; with KM12 colon it was 35.3 µM; with M14 melanoma, 38.8 µM. The TGI in the experiment with NCI-H522 lung is 26.9 µM; with NCI/ADR-RES ovarian, 53.5 µM; with SR leukemia it was 6.51 µM; in the experiment on U251 CNS it was 37.2 µM.

Take `CCOC(=O)/C=C/C(Br)=C(Br)/C=C/C(=O)OCC`: the TGI in the experiment with HCC-2998 colon is 49 µM; in the experiment on HCT-15 colon, 10.7 µM; in the experiment on HS 578T breast, above 76.2 µM; with K-562 leukemia, 10.9 µM; with KM12 colon it was 32.6 µM; in the experiment with M14 melanoma, 30.3 µM. For the same compound, the TGI with NCI-H522 lung is 7.14 µM; in the experiment with NCI/ADR-RES ovarian it was 64.8 µM; with SR leukemia it was 34.4 µM; in the experiment on U251 CNS, 27.9 µM.
